Source: patent publication US4749710A, “Immunosuppressive agents” (priority 1985, dated 1988)
Read-outs that look alike come from different tables or passages of the source.

Assays:
Format in all cases: cell-based
[1] = tested on: human cytotoxic T-lymphocyte responses; assay: Inhibition of human CTL responses (mixed leukocyte-tumor cultures, HT-144 melanoma, ^51 Cr release); conditions: donor I, 0.01% ethanol, effector to target 6:1
Procedure: Human cells for the tests described below were taken from four donors designated I, II, III, and IV in the tables below.
Stock solutions of Vitamin D derivatives were prepared as they were prepared above in the murine tests.
Human cytotoxic T-lymphocytes were generated in mixed leukocyte-tumor cultures by known methods. Specifically, blood from normal volunteer donors was drawn into heparinized syringes, diluted 1:1 with calcium-magnesium free Hanks' balanced salt solution (Ca-Mg free HBSS), and layered over lymphocyte separation medium (Litton Bionetics, Kensington, MD). After centrifugation at 500xg for 20-30 min at room temperature, peripheral blood mononuclear cells were harvested from the interface. The peripheral blood mononuclear leukocytes were centrifuged and resuspended in Ca-Mg free HBSS and were subsequently separated from platelets by centrifugation at 500xg through a solution of 20% sucrose and 1% human AB serum in Ca-Mg free HBSS. The cells were washed once and finally resuspended in tissue culture medium. […] Cells to be used as stimulator cells in mixed leukocyte-tumor cultures were irradiated with 10,000 rads of gamma irradiation to preclude proliferation in culture. Mixed leukocyte-tumor cell cultures were established in 16 mm tissue culture wells at a final volume of 1.5 ml per well containing 2×10^6 peripheral blood mononuclear leukocytes and 5×10^4 irradiation-inactivated stimulator cells. In order to prevent the generation of nonspecific cytotoxic cells in these cultures, hydrocortisone sodium succinate was added to each culture at a final concentration of 1×10^-5 M. Mixed leukocyte-tumor cultures were incubated for 6 days in a humidified atmosphere of 5% CO2 in air.
Labelled target cells were washed free of unbound isotope by 3 serial washes in tissue culture medium and were finally resuspended at a concentration of 5×10^4 cells per ml.
Assays of human cytotoxic T-lymphocytes were done by known methods. Specifically, one-tenth ml aliquots of ^51 Cr-labelled target cell suspension were added to "half area" microtest plates and were incubated at 37° C. for 18 hours in a humidified atmosphere of 5% CO2 in air to permit the cells to adhere and spread on the floor of each well. Culture medium was then aspirated from each well and was replaced with 0.1 ml of tissue culture medium containing cells harvested from mixed leukocyte-tumor cultures which had been processed as described for murine mixed leukocute cultures, above. Control wells for measurement of spontaneous ^51 Cr release received medium without effector cells and wells for measurement of maximal releasable ^51 Cr received 0.1 ml of 2% sodium dodecyl sulfate in distilled water. After overnight incubation at 37° in a humidified atmosphere of 5% CO2 in air, 0.05 ml of cell-free supernatant was withdrawn from each well and the amount of released ^51 Cr was quantitated using a gamma spectrometer. The percentage of specific ^51 Cr release (CTL activity) and the percent inhibition of CTL activity were calculated with the same formulas used above for the murine CTL assay.
Tests conducted on human cytotoxic T-lymphocyte responses are reported as the mean±standard error of the mean from triplicate ^51 Cr release determinations on pooled cells from duplicate control or test cultures.

[2] = tested on: IgM production by human lymphocytes; assay: Inhibition of IgM production by human lymphocytes in vitro (SAC activation, ELISA); conditions: 8 days, vehicle control 2.49 ± 0.17
Excerpt: (§1) General Test Description Humoral immunity comprises one of the two major arms of the immune system and generally is beneficial. However, a number of disease states are characterized by a hyperactive immune system responding to self tissue antigens. […] In these diseases it would be important to suppress the humoral immune system.
(§2) In the following studies we used established methods to examine the effect of Vitamin D derivatives on the in vitro production of immunoglobulin (Ig) by human peripheral blood leukocytes (PBL) following polyclonal activation. Immunoglobulin was induced from PBL by co-culturing the PBL with the polyclonal B cell activator Staphylococcus aureus strain Cowan I (SAC) for a period of 8 days. The quantity of Ig produced in the culture supernatants was determined by using an enzyme linked immunosorbent assay (ELISA). The effect of Vitamin D derivatives was determined by comparing the amount of antibody produced in cultures containing Vitamin D derivatives to those cultures containing an appropriate concentration of vehicle (ethanol).
(§3) Solutions of vitamin D derivatives. Stock solutions of vitamin D derivatives were prepared as described previously for the murine CTL experiments.
(§4) INDUCTION OF HUMAN IG SECRETION Human peripheral blood mononuclear leukocytes were prepared from one day old buffy coat preparations obtained from the American Red Cross (Lansing, MI). […] Twenty five ml of this preparation were overlayed onto 25 ml of Ficoll-Paque contained in a 50 ml polypropylene centrifuge tube. After centrifugation at 400×g at 15° C. for 40 min, the cells at the interface of the medium and Ficoll were removed and washed 3 times in 50 ml RPMI medium and centrifuged at 300×g for 10 minutes. After the final centrifugation,the cell pellet was suspended in RPMI medium containing 20% fetal bovine serum (FBS) and 80 μg/ml gentamicin. The number of viable cells was determined by trypan blue exclusion and were then suspended to 2.5×10^6 viable cells per ml in RPMI containing 20% FBS and gentamicin. Human PBL were induced to secrete Ig as follows. One hundred microliters of the PBL suspension and an additional 100 μl of a 1:20,000 (v/v) preparation of SAC suspended in RPMI containing 1% FBS were added to each well of a 96-well microtiter plate. Selected wells were also set up without the addition of SAC to serve as negative controls (spontaneous Ig secretion). Each well then received 20 μl of either the appropriate dilution of Vitamin D derivative in RPMI with 1% ethanol or RPMI with 1% ethanol (vehicle control). The vitamin D derivatives were tested at final concentrations of 10^-5, 10^-6, 10^-7, 10^-8, 10^-9, and 10^-10 M and in all cases the vehicle (ethanol) concentration was 0.1%. All treatments were performed in triplicate. […] The samples were then either assayed immediately or stored at -20° C. until assayed by the ELISA technique described below.
(§5) QUANTITATION OF SECRETED IG (ELISA ASSAY) ELISA plates were prepared for quantitating human IgG and IgM levels in culture supernatants as follows. Affinity purified sheep anti-human IgG and goat anti-human IgM (Cappel, Cochranville, PA) were diluted 1:250 and 1:400 respectively, in carbonate coating buffer (0.05M sodium bicarbonate, 0.05M sodium carbonate, 0.15M sodium chloride). One hundred and fifty microliters of the antibody preparation were added to each well of a 96 well ELISA plate (EIA, Costar). The plates were sealed and incubated overnight at 4° C. and on the following day were washed 3 times with distilled water. Each well then received 350 μl of Dulbecco's PBS containing 1 mg/ml bovine serum albumin (BSA) and 0.5 mg/ml sodium azide. The plates were allowed to incubate for 1 hour at 37° C. and then washed 3 times with Dulbecco's PBS containing 0.5% stock Tween 20 (PBS-Tween) followed by 2 washes with distilled water. The plates were air dried and stored desiccated under a vacuum at 4° C. until use.

[3] = tested on: IgG production by human lymphocytes; assay: Inhibition of IgG production by human lymphocytes in vitro (SAC activation, ELISA); conditions: 8 days, vehicle control 0.78 ± 0.09
Excerpt: as §1, §2, §3, §4, §5

## C=C1/C(=C\C=C2/CCC[C@]3(C)[C@@H]([C@H](C)CC[C@@H](F)C(C)(C)O)CC[C@@H]23)C[C@@H](O)C[C@@H]1O [24R-F--1α,25-(OH)2 --D3, 1α,25-Dihydroxy-24R-fluorocholecalciferol]
[1]; Homo sapiens, T-lymphocyte, Test 1, 1 × 10^-6 molar, read-out: Inhibition of CTL activity (%)
  inhibition at 1 µM: 87%
[1]; Homo sapiens, T-lymphocyte, Test 1, 1 × 10^-7 molar, read-out: Inhibition of CTL activity (%)
  inhibition at 0.1 µM: 62%
[1]; Homo sapiens, T-lymphocyte, Test 2, 1 × 10^-5 molar, read-out: Inhibition of CTL activity (%)
  inhibition at 10 µM: 94%
[1]; Homo sapiens, T-lymphocyte, Test 2, 1 × 10^-6 molar, read-out: Inhibition of CTL activity (%)
  inhibition at 1 µM: 100%
[1]; Test 1, 1 × 10^-6 molar
  CTL activity (% specific ^51 Cr release): 7 ± 6 % specific ^51 Cr release
[1]; Test 1, 1 × 10^-7 molar
  CTL activity (% specific ^51 Cr release): 20 ± 1 % specific ^51 Cr release
[1]; Test 2, 1 × 10^-5 molar
  CTL activity (% specific ^51 Cr release): 3 ± 4 % specific ^51 Cr release
[1]; Test 2, 1 × 10^-6 molar
  CTL activity (% specific ^51 Cr release): 0 ± 3 % specific ^51 Cr release
[2]; 1 × 10^-6 molar
  IgM μg per culture (x ± S.E.M.): undetectable
[2]; 1 × 10^-7 molar
  IgM μg per culture (x ± S.E.M.): 0.12 ± 0.06 μg per culture
[2]; 1 × 10^-8 molar
  IgM μg per culture (x ± S.E.M.): 1.23 ± 0.03 μg per culture
[2]; 1 × 10^-9 molar
  IgM μg per culture (x ± S.E.M.): 3.13 ± 0.41 μg per culture
[2]; 1 × 10^-10 molar
  IgM μg per culture (x ± S.E.M.): 3.84 ± 0.72 μg per culture
[3]; 1 × 10^-6 molar
  IgG μg per culture (x ± S.E.M.): undetectable
[3]; 1 × 10^-7 molar
  IgG μg per culture (x ± S.E.M.): 0.01 ± 0.002 μg per culture
[3]; 1 × 10^-8 molar
  IgG μg per culture (x ± S.E.M.): 0.10 ± 0.02 μg per culture
[3]; 1 × 10^-9 molar
  IgG μg per culture (x ± S.E.M.): 0.22 ± 0.05 μg per culture
[3]; 1 × 10^-10 molar
  IgG μg per culture (x ± S.E.M.): 0.21 ± 0.06 μg per culture
